Results from patent US20120122848A1, “(+)-3-HYDROXYMORPHINAN DERIVATIVES AS NEUROPROTECTANTS” (GREEN CROSS CORPORATION, priority 2009, published 2012).
Counter-ions that a name gives are not always drawn.

The molecules below were run on HT22 cells (mouse hippocampal neuron) (assay: Cell cytotoxicity test: protection of HT22 cells against glutamate toxicity (EC50) and cytotoxicity of the compounds (CC50), MTT). Conditions: Mus musculus, HT-22, five millimolar glutamate, 24 hrs, read-out: EC50 (neuroprotective effect against glutamate toxicity).
Format: cell-based
Method: HT22 cells (mouse hippocampal neuron, Salk Institute and KRIBB) were plated in a 96-well plate at a density of 3×10^3 cells/well for 16 hrs before treatment. The cells were treated with five millimolar glutamate and various concentrations of the inventive compounds and incubated for 24 hrs in a growth media (DMEM with 10% FBS and 1% penicillin streptomycin). Then, the cells were treated with 3-(4,5-dimethylthiazol-2-yl)-2,5-diphenyltetrazolium bromide (MTT, Sigma®) for 4 hrs and absorbance of each well was measured with a plate reader at a wavelength of 450 nm. [Da-Qing, et. al., Anti-oxidant and anti-inflammatory activities of macelignan in murine hippocampal cell line and primary culture of rat microglia cells, BBRC, 2005, 331, 1264-1269].
In Table 1, EC50 is neuroprotective effect against glutamate toxicity and CC50 is cytotoxicity of the compounds. The EC50 values were statistically analyzed using Prizm® (GraphPad Software Inc., San Diego, Calif., USA).

Compared with Oc1c(Cl)cc2c(c1Cl)[C@]13CCCC[C@@H]1[C@H](C2)NCC3 [Example 4, (+)-2,4-Dichloro-3-hydroxymorphinan TFA salt], Oc1c(Cl)cc2c(c1Br)[C@]13CCCC[C@@H]1[C@H](C2)NCC3 [Example 8, (+)-4-Bromo-2-chloro-3-hydroxymorphinan TFA salt] is 1.9-fold higher in EC50: 10.9 µM for the first, 20.2 µM for the second. The first is the more potent here.

First: Oc1c(Br)cc2c(c1Br)[C@]13CCCC[C@@H]1[C@H](C2)NCC3 [Example 6, (+)-2,4-Dibromo-3-hydroxymorphinan TFA salt]
Second: Oc1c(F)cc2c(c1Br)[C@]13CCCC[C@@H]1[C@H](C2)NCC3 [Example 3, (+)-4-Bromo-2-fluoro-3-hydroxymorphinan TFA salt]
The EC50 of the first is 2.1-fold lower: 9.57 µM for the first, 19.8 µM for the second. The first is the more potent here.

First: OCc1cc2c(cc1O)[C@]13CCCC[C@@H]1[C@H](C2)NCC3 [Example 16, (+)-3-Hydroxy-2-(hydroxymethyl)morphinan TFA salt]
Second: CCc1cc2c(cc1O)[C@]13CCCC[C@@H]1[C@H](C2)NCC3 [Example 84, (+)-2-Ethyl-3-hydroxymorphinan TFA salt]
The EC50 of the first is higher: over 100 µM for the first, 6.71 µM for the second. The second is the more potent here.

First: Oc1cc2c(cc1-c1ccccc1)C[C@@H]1NCC[C@]23CCCC[C@H]13 [Example 80, (+)-3-Hydroxy-2-phenylmorphinan TFA salt]
Second: Oc1cc2c(cc1-c1ccc(Cl)cc1)C[C@@H]1NCC[C@]23CCCC[C@H]13 [Example 74, (+)-2-(4-Chlorophenol)-3-hydroxymorphinan TFA salt]
The EC50 of the first is 11-fold higher: 9.1 µM for the first, 0.796 µM for the second.

Oc1cc2c(cc1F)C[C@@H]1NCC[C@]23CCCC[C@H]13 [Example 1, (+)-2-Fluoro-3-hydroxymorphinan TFA salt] and Oc1cc2c(cc1O)[C@]13CCCC[C@@H]1[C@H](C2)NCC3 [Example 10, (+)-2,3-Dihydroxymorphinan TFA salt] are within 1.5-fold of each other in EC50: 9.68 µM for the first, 12.1 µM for the second.

Going from COc1cc2c(cc1O)[C@]13CCCC[C@@H]1[C@H](C2)NCC3 [Example 12, (+)-3-Hydroxy-2-methoxymorphinan TFA salt] to Cc1cc2c(cc1O)[C@]13CCCC[C@@H]1[C@H](C2)NCC3 [Example 85, (+)-3-Hydroxy-2-methylmorphinan TFA salt], the EC50 falls from 24.4 µM to 8.39 µM (2.9-fold). The second is the more potent here.

Compared with CCCCOC(=O)Nc1ccccc1Nc1cc2c(cc1O)[C@]13CCCC[C@@H]1[C@H](C2)NCC3 [Example 118, (+)-2-(2-(Butoxycarbonylamino)phenylamino)-3-hydroxymorphinan TFA salt], CCCCNC(=S)Nc1ccccc1Nc1cc2c(cc1O)[C@]13CCCC[C@@H]1[C@H](C2)NCC3 [Example 123, (+)-2-(2-(Butylthioureido)phenylamino)-3-hydroxymorphinan TFA salt] is 1.9-fold lower in EC50: 0.891 µM for the first, 0.459 µM for the second.

Oc1ccc2c(c1Br)[C@]13CCCC[C@@H]1[C@H](C2)NCC3 [Example 7, (+)-4-Bromo-3-hydroxymorphinan TFA salt] and Oc1ccc2c(c1Cl)[C@]13CCCC[C@@H]1[C@H](C2)NCC3 [Example 5, (+)-4-Chloro-3-hydroxymorphinan TFA salt] are within 1.5-fold of each other in EC50: 12.5 µM for the first, 9.33 µM for the second.

Compared with Oc1c(F)cc2c(c1Cl)[C@]13CCCC[C@@H]1[C@H](C2)NCC3 [Example 2, (+)-4-Chloro-2-fluoro-3-hydroxymorphinan TFA salt], Oc1cc2c(cc1I)C[C@@H]1NCC[C@]23CCCC[C@H]13 [Example 9, (+)-3-Hydroxy-2-iodomorphinan TFA salt] is 4.9-fold lower in EC50: 50 µM for the first, 10.2 µM for the second. The second is the more potent here.

Going from O=Cc1cc2c(cc1O)[C@]13CCCC[C@@H]1[C@H](C2)NCC3 [Example 13, (+)-2-Formyl-3-hydroxymorphinan TFA salt] to O=C(O)c1cc2c(cc1O)[C@]13CCCC[C@@H]1[C@H](C2)NCC3 [Example 14, ((+)-3-Hydroxymorphinan)-2-carboxylic acid TFA salt], the EC50 rises from 11.6 µM to 86.3 µM (7.4-fold). The first is the more potent here.
